Measurements reported in patent US11767298B2, “Substituted benzimidazoles as inhibitors of transforming growth factor-β kinase” (Duke University, priority 2016, dated 2023).

Key:
HepG2 cells = test: HepG2 cell viability / cytotoxicity; format: cell-based, human; details: HepG2; concentrations up to 200 μM
Description: (§1) Cell-based anti-Plasmodium assays. For liver stage assays, 15,000 HepG2 or 8,000 Huh7 cells/well were added to 384-well microtiter plates using a multichannel pipette (Rainin). After 2 hours at 37° C., compounds (0-100 μM) were added to cells in duplicate or triplicate in a final concentration of 1% DMSO. DMSO was used as the negative control. Following compound incubation at 37° C. for ˜1 hr, harvested luciferase-expressing P. berghei ANKA sporozoites were added to the plates at a density of 3,000 sporozoites/well. P. berghei ANKA sporozoites were obtained from harvesting the salivary glands of infected A. stephensi mosquitoes. The plates were spun for 10 min at 1,000 rpm, and then incubated at 37° C. for ˜45 hrs. […] After ˜45 hours at 37° C., liver cell viability was assessed using CellTiter-Fluor (Promega) and then parasite load was determined using Bright-Glo (Promega). The relative fluorescence and luminescence signal intensity of each well was evaluated with an EnVision System. The luminescence signal in the presence of compounds was normalized to the negative control (DMSO). Dose-response analysis was performed with GraphPad Prism to yield the reported EC50 values.
(§2) Anti-Plasmodium activity was evaluated in the parasite's liver stage using a previously reported high-throughput assay. In this assay, luciferase-expressing P. berghei (murine) parasites are used to infect human hepatoma cells (HepG2) and parasite load is assessed with a luminometer subsequent to evaluating HepG2 viability using a commercially available quantification kit that measures intracellular protease activity.
(§3) Specifically, their ability to inhibit P. berghei infection in two human hepatoma cell lines (HepG2 and Huh7) as well as cytotoxicity against HepG2 and Huh7 cells was determined as described above. Liver cell cytotoxicity was evaluated with two different commercially available assays, one that tests for intracellular protease activity with a fluorescence reporter and another that relies on the luminescent detection of total ATP.

GCK = GCK (Homo sapiens, UniProt Q12851); test: Kinase profiling (Dundee), GCK; format: biochemical
Description: (§4) Kinase selectivity profiling. The selectivity profile of HS-206 to inhibit mammalian kinases was tested against a panel of 140 kinases at a single concentration of 10 μM. Tests were performed using a radiolabeld (^33P-ATP) filter-binding assay at the International Centre for Kinase Profiling at the University of Dundee, UK (http://www.kinase-screen.mrc.ac.uk/).
(§5) This panel contains members of all major kinase families, including tyrosine kinases (TK), tyrosine kinase-like (TKL), sterile serine/threonine (STE), and CDK/MAPK/GSK/CLK (CMGC). […] For these kinases, IC50 values were determined (Table 1).

MINK1 = MINK1 (Homo sapiens, UniProt Q8N4C8); test: Kinase profiling (Dundee), MINK1; format: biochemical
Description: as §4, §5

CLK2 = CLK2 (Homo sapiens, UniProt P49760); test: Kinase profiling (Dundee), CLK2; format: biochemical
Description: as §4, §5

GFP-PfPK9 = GFP-PfPK9 (Plasmodium falciparum, UniProt Q8IEG4); test: ATP-competitive binding assay (ATP-sepharose pull-down, FLECS); details: GFP-PfPK9; Kd calculated from EC50 of ATP pull-down dose-response; read-out: Kd, app
Description: Primary small-molecule screen. A small-molecule screen was performed similar to a previously reported fluorescence linked enzyme chemoproteomic strategy (FLECS). Briefly, HEK293-GFP-PfPK9 cells were grown in 182-cm^2 tissue culture flasks (Genesee Scientific) and harvested at ˜80% cell confluency. Before assays the culture medium was aspirated, cells were rinsed with ice cold PBS and then they were removed with a cell scraper. Cells were pelleted by centrifugation (2,000 rpm, 4° C., 2 min) and immediately lysed for assays. The pellet was suspended in buffer A (25 mM HEPES, pH 7.4, 150 mM NaCl, 60 mM MgCl2, 1 mM DTT) with 1 μM microcystin, 0.1% Triton X-100 plus a Roche Complete protease inhibitor tablet and then placed on ice for 30 min to facilitate lysis. The supernatant was collected after centrifugation (4,300 rpm, 4° C., 5 min) and used in subsequent screening and titrations experiments. For screening, the supernatant was added to ATP-sepharose beads (1:1) and incubated with agitation at 4° C. for at least 1 hr to allow binding. Following this incubation, the mixture was centrifuged, the ATP resin was washed with 9 column volumes of buffer A with 1 M NaCl and then 9 column volumes of buffer A. The ATP-sepharose medium was reconstituted as a 1:1 slurry with buffer A and then added to 96-well filter plates (50 μL/well) (Corning #3505) using a multichannel pipette (Rainin). The filter plate was on top of black 96-well catch plates (Corning #3915). An ATP dilution series (1-200 mM) was added to each plate as a positive control and DMSO was the negative control. Compounds and controls were all added to 50 μL per well in buffer A. For screening, compounds were tested in singlicate at 500 μM. The final DMSO concentration in every well was 5%. The fluorescence intensity in each well was measured on an EnVision system. Data analyses of screens were carried out in EXCEL (Microsoft, Corp.) and actives were identified as 2×background signal.
All screening positives that were verified with Western blot analysis were purchased from Enamine or Vitas-M laboratory. The purity of compounds 1-5 (shown below) was verified by high-resolution MS (Agilent). Compounds were tested in 8-point dose-response (0-500 μM) experiments in duplicate, essential as described above. The fluorescence intensity in each well was measured using an EnVision system. Dose-response analysis was performed with GraphPad Prism to acquire EC50 values. Determined EC50 values were used to calculate the observed PfPK9 Kd and reported values are the average of 2-3 independent experiments.
Stable cell line generation. The P. falciparum PK9 gene (PlasmoDB accession #PF3D7_1315100) was cloned into the pEGFP-C1 mammalian expression vector (Clontech) in frame with a […] GFP tag. For screening, HEK293 cells were transfected with the resulting PfPK9-pEGFP-C1 vector to generate HEK293-GFP-PfPK9 expressing cells using X-tremeGENE HP transfection reagent (Roche) per the manufacturer instructions. Briefly, the culture medium was replaced at 48 hours post-transfection with medium supplemented with 1 mg/mL G418 sulfate (Life Technologies) to select for stably transfected cells. Following stable cell selection, fluorescence activated cell sorting (FACS) was used to enrich for GFP-PfPK9 expressing cells. Subsequently, FACS sorted HEK293-GFP-PfPK9 cells were cultured with medium supplemented with 0.5 mg/mL G418 sulfate for all following experiments. Protein expression was verified by Western blot analysis probing for anti-GFP and by fluorescence intensity using an EnVision (PerkinElmer) system.
All 14 positive molecules were also tested for their binding affinity to PfPK9 using an optimized ATP-competitive binding assay. EC50 values ranging from low μM to low mM were observed and these EC50 values were used to derive dissociation constants as described previously. […]

Huh7 cells = test: Huh7 cell viability / cytotoxicity; format: cell-based, human; details: concentrations up to 200 μM
Description: as §1, with “After 2 hours at 37° C., compounds (0-100 μM) were added to cells in duplicate or triplicate in a final concentration of 1% DMSO.” left out
as §3

TAK1 = biological target: T1, TAK1 (Homo sapiens, UniProt O43318); test: Western Blot analysis of PROTAC-treated MDA-MB-231 cells, TAK1; format: cell-based
T1 construct: endogenous in cells; host or cells: MDA-MB-231
Excerpt: TAK1 is an Hsp90 client protein, which is why its expression is likely affected in these samples. […] This effect has previously been described as prozone effect. At high PROTAC concentrations, both E3 ligase and protein are saturated individually with PROTAC, so that the complex of ligase and protein can no longer be formed.

P. berghei [1] = test: Liver stage parasite load, luciferase-expressing P. berghei in HepG2 cells; format: cell-based, Plasmodium berghei ANKA; details: HepG2 host cells
Description: as §1, §2, §3

P. berghei [2] = test: Liver stage parasite load, luciferase-expressing P. berghei in Huh7 cells; format: cell-based, Plasmodium berghei ANKA; details: Huh7 host cells, read-out: IC50 Liver state (Huh7)
Description: as §1, §3

PfPK9 = test: UBC13 phosphorylation by PfPK9 (ADP luminescence assay); format: biochemical, P. falciparum; details: compared to DMSO
Description: Recombinant protein expression and enzyme activity assay. Recombinant GST-tagged PfPK9 was expressed in E. coli BL21(DE3) cells, purified to homogeneity, and the GST tag was cleaved with PreScission Protease (GE Healthcare). To test for inhibition of PfPK9, the ADP detection assay ADP-Glo (Promega) was used to determine ATPase activity of PfPK9 in the presence of the PfUBC13 protein substrate when treated with compounds 1 and 5. Approximately 500 nM PfPK9 was incubated with either compound (10 μM or 500 μM) for 5 min at RT in buffer containing 40 mM Tris, pH 7.5, 20 mM MgCl2, 2 mM MnCl2 and 1 mM DTT prior to assay initiation with 100 μM ATP. The assay was performed in white low-volume 384-well plates (Corning #3824) in triplicate. The assay plate was sealed and subsequently incubated for 8 hrs at 37° C. before ADP detection per manufacturer instructions. The final assay volume was 5 μL with a final concentration of 1% DMSO. A negative control was performed in 1% DMSO and heat inactivated PfPK9 (80° C. for 5 min) was used as a positive control. The luminescence intensity in each well was measured on an EnVision system. Data were normalized to the average luminescence signal of the negative control to provide relative ADP concentrations and graphs were constructed in GraphPad Prism. Data analyses were conducted from three independent experiments. […]

[3] = system: K63-linked ubiquitination; test: Western blot for K63-linked ubiquitination in Plasmodium blood stage; format: cell-based, P. falciparum; details: 30 μM, 24 hr, blood stage parasites
Description: P. falciparum asexual blood-stage culture. P. falciparum 3D7 isolate was maintained under standard conditions in complete culturing medium [10.44 g/L RPMI 1640 (Invitrogen), 5.94 g/L HEPES (Invitrogen), 50 mg/L hypoxanthine (Sigma), 2.02 g/L sodium bicarbonate (Sigma), 5 g/L albuMAX II (Invitrogen), 25 mg/L gentamicin (Sigma), pH 7.2]. Parasite cultures were supplied with human red blood cells (Gulf Coast Regional Blood Center) at 1% hematocrit. To obtain synchronous cultures, Plasmodium parasites (at least 50% parasites were at the early-ring stage) were pelleted at 300×g for 7 min using a low brake setting and treated with 25 volume 5% D-sorbitol (Sigma) at 37° C. for 10 min. Treated parasites were then harvested and washed with 25 volume of complete culturing medium using the aforementioned centrifugation protocol, and diluted with the complete medium to 1% hematocrit to maintain the parasite culture at 37° C. and 5% CO2.
Protein extraction and Western blot for K63-linked ubiquitination in Plasmodium blood stage. […] Total protein lysates were heated in SDS loading buffer for 5 min at 80° C., analyzed on 4-20% Tris-Glycine polyacrylamide gels (Novex, Life Technologies) and subsequently transferred to nitrocellulose membranes. […]

T1 sequence (O43318 whole entry): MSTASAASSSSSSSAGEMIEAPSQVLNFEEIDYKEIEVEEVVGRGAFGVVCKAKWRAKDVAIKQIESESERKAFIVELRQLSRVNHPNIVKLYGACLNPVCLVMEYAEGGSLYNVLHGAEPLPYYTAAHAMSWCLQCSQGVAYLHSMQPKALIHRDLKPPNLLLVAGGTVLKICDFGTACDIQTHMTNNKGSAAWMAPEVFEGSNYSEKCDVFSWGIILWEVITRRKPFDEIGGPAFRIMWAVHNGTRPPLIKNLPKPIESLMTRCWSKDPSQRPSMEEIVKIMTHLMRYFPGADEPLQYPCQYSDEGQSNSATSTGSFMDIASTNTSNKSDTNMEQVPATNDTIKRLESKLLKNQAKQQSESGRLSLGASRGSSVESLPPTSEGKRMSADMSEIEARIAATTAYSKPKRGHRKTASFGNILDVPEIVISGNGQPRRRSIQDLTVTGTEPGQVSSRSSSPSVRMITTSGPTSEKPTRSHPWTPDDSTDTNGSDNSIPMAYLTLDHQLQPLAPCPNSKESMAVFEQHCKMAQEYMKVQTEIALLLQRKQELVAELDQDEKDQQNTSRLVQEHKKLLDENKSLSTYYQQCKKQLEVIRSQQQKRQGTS
Chain of GFP-PfPK9 (Q8IEG4 entry or part of it): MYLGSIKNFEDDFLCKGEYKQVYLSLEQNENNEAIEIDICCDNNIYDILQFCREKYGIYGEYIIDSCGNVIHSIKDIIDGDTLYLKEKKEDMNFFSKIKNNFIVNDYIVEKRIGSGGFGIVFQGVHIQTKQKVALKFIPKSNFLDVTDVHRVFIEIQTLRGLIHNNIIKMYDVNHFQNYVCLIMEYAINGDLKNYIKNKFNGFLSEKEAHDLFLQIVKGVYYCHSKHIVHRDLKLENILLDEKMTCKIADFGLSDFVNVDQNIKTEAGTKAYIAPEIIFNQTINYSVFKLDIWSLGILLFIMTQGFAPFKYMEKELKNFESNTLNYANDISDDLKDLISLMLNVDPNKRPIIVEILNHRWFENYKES
Chain of MINK1 (Q8N4C8 whole entry): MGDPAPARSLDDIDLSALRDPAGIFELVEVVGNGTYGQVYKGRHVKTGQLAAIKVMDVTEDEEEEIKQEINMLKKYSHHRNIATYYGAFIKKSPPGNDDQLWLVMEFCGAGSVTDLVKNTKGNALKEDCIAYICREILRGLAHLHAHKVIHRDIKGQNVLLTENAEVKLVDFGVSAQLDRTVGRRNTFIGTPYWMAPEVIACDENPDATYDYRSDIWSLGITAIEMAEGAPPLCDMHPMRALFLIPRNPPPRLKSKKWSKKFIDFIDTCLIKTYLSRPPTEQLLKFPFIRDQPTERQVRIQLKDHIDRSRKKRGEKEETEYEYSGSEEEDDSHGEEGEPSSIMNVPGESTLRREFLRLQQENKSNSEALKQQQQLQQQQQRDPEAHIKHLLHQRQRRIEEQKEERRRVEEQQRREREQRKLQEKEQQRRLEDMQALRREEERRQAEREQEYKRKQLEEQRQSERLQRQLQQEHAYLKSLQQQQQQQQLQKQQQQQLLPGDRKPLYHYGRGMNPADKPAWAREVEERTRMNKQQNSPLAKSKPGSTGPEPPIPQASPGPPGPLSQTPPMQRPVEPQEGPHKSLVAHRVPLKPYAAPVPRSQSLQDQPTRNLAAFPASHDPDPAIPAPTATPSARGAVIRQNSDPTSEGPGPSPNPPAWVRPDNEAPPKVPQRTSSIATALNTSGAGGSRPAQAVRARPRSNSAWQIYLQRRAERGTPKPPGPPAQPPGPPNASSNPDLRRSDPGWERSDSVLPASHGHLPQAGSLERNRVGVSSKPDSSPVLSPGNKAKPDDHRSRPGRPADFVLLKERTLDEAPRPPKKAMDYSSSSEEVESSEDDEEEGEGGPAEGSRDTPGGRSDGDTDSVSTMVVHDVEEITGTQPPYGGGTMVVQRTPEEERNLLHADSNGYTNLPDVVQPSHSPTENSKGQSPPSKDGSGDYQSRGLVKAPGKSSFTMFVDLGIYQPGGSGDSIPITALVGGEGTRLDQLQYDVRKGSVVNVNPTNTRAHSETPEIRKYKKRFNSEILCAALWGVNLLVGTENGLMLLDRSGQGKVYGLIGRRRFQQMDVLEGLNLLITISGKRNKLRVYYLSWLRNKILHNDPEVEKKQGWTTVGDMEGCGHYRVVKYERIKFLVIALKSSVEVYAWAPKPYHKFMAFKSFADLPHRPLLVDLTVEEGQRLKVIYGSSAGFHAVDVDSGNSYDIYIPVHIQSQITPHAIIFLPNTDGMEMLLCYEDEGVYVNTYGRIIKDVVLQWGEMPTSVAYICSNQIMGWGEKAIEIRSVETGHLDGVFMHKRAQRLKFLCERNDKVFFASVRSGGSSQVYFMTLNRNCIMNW
Chain of GCK (Q12851 whole entry): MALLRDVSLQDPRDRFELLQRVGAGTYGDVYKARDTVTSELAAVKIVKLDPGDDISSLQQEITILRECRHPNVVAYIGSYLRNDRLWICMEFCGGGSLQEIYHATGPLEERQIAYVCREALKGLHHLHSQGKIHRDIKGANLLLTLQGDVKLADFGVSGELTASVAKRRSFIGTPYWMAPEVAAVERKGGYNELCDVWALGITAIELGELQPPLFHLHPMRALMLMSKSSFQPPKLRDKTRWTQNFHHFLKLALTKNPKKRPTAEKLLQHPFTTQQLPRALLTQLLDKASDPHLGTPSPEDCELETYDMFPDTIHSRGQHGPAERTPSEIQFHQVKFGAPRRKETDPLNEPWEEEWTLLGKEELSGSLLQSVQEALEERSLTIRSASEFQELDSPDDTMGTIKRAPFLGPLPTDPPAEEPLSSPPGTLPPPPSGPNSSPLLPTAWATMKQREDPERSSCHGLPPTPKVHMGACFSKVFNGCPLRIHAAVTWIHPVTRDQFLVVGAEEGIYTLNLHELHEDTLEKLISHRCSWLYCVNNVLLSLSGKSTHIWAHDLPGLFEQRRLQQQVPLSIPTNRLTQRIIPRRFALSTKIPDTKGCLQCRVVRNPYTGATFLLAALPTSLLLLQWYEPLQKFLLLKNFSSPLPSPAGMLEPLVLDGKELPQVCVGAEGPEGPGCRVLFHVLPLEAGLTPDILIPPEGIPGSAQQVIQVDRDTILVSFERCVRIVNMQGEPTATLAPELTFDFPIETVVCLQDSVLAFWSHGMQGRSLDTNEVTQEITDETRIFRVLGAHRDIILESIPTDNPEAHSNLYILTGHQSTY
Chain of CLK2 (P49760 whole entry): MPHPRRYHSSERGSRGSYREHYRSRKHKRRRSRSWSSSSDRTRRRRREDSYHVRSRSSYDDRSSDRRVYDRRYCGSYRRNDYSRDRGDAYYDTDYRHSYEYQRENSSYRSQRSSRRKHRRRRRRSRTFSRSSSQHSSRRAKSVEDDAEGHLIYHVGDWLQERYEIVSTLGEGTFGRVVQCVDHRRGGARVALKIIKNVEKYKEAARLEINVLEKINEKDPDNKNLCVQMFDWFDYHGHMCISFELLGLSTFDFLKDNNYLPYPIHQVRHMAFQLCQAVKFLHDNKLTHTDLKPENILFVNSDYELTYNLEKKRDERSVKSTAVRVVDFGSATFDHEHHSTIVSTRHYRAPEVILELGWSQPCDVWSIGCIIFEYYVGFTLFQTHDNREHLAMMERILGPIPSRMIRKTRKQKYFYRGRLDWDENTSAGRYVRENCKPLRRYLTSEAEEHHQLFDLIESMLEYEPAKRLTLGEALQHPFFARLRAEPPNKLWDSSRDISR

IC50 (GCK) [µM] | IC50 (MINK1) [µM] | IC50 (CLK2) [µM] | Kd (GFP-PfPK9) [µM] | protein levels (TAK1) (TAK1; 0.1 μM) | protein levels (TAK1) (TAK1; higher concentrations) | SMILES | effect on liver cell viability (HepG2 cells) | effect on liver cell viability (Huh7 cells) | IC50 (P. berghei [1]; Plasmodium berghei, HepG2, parasite load) [µM] | IC50 (P. berghei [1]; parasite load) [µM] | IC50 (P. berghei [2]; Plasmodium berghei, Huh-7, parasite load) [µM] | IC50 (P. berghei [2]; parasite load) [µM] | UBC13 phosphorylation by PfPK9 (PfPK9) | K63-linked ubiquitination [3]
0.43 ± 0.04 | 1.9 ± 1 | 0.43 ± 0.04 | ~0.2 |  |  | CCCn1/c(=N/C(=O)c2cccc(C(N)=O)c2)[nH]c2ccccc21 [HS-206 (1), (E)-N-(1-Propyl-1,3-dihydro-2H-benzo[d]imidazol-2-ylidene)isophthalamide] | did not affect liver cell viability even at 200 μM | did not affect liver cell viability even at 200 μM |  |  |  |  |  | 
 |  |  |  | reduction in protein levels | no effect | CCCn1/c(=N/C(=O)c2cccc(C(N)=O)c2)[nH]c2cc(/C=C/C(=O)NCCCOCCOCCOCCOCCOCCCNc3cccc4c3C(=O)N(C3CCC(=O)NC3=O)C4=O)ccc21 (stereo not shown) [HS-237] |  |  |  |  |  |  |  | 
 |  |  |  |  |  | Cc1nc(-c2cccs2)c(CCC(=O)Nc2cccc3cccnc23)s1 [compound 5] | neither compound 4 or 5 had any significant effects on cell viability | neither compound 4 or 5 had any significant effects on cell viability | 10 | 9.7 | 9 | 8.5 | significantly decreased | decreased K63-linked ubiquitination in blood stage parasites albeit to a lesser extent than compound 1
